According to patent publication US5266562A, “Anti-inflammatory agents” (The United States of America as represented by the …, priority 1987, dated 1993):
Read-outs that look alike come from different tables or passages of the source.

B1: Uteroglobin: protein purified from uterine washings of rabbits primed with chorionic gonadotropin; also known as blastokinin (protein, UniProt P02779 22-91, looked up)
Uteroglobin: GICPRFAHVIENLLLGTPSSYETSLKEFEPDDTMKDAGMQMKKVLDSLPQTTRENIMKLTEKIVKSPLCM

How the values were obtained:
[1] = system: prostanoid levels (PGE2, PGF2α) in skin lesions; assay: Prostanoid levels (radioimmunoassay) in tissues injected with phorbol myristate acetate; assay type: in vivo, rabbit; details: for Effect on tissue prostanoid levels (PGE2, PGF2α) (in words): rabbit skin lesions injected with phorbol; for Prostaglandin levels PGE2 / Prostaglandin levels PGF2 α: rabbit skin lesions, phorbol 10 μM then test substance 20 μM 0.1 ml after 5 minutes, mean of two experiments; for Prostaglandin levels PGF2 α: ND = Nondetectable
Protocol: These tissues were used for histopathological analysis.
A similar groups of animals were sacrificed 48 hours after the injections were made and the skin lesions were dissected out and homogenized in cold phosphate buffered saline (PBS, pH 7.4). The homogenate was centrifuged at 2500×g for 10 minutes at 4° C. The supernatants were frozen at -70° C. until assayed for prostaglandins.

[2] = system: phorbol myristate acetate induced inflammation on rabbit skin; details: for Histopathology: inflammatory cells in phorbol injected skin (in words) / Effect on phorbol induced erythema and induration (in words) / Erythema (mm), Phorbol injected / Induration (mm), Phorbol injected: rabbit skin; for Histopathology: inflammatory cells in phorbol injected skin (in words): 20 μM injected after phorbol, FIG. 3; for Erythema (mm), Phorbol injected / Induration (mm), Phorbol injected: phorbol myristate acetate 10 μM, 0.1 ml, test substance 20 μM, mean ± SEM
Protocol: Animals: Virgin New Zealand rabbits weighting 3-3.5 Kg were used for all experiments. These animals were housed in separate cages and provided with food and water ad libitum. A daily schedule of 12 hours light and 12 hours darkness was maintained throughout the experimental period.
Induction of inflammation and the effect of uteroglobin: The dorsal skin of rabbits was shaved and 1/2 square inch areas demarcated lightly with a felt tip marker pen. […] The demarcated areas were used for identifying the locations where phorbol, carragennin, or other test substances were injected. Using a 25 gauge needle and a tuberculin syringe (1 cc), phorbol myristate acetate solution (10 mM) was injected into all areas, except for two, where no injections were given and two other areas where the solvent of phorbol myristate, dimethyl sulfoxide (DMSO), was injected alone. Various test substances were injected on one side of the vertebral column and the opposite side was used for controls. Thus, in this system a comparison of phorbol induced inflammation with the effects of various test substances could easily be made. These areas were observed daily and the diameter of the erythema and induration for each lesion was measured by the same observer. […] These tissues were used for histopathological analysis.

[3] = equimolar concentrations, concentration not given

| Molecule | Effect on tissue prostanoid levels (PGE2, PGF2α) (in words) [1] | Prostaglandin levels PGE2 [1] [pg/mg protein] | Prostaglandin levels PGF2 α [1] [pg/mg protein] | Histopathology: inflammatory cells in phorbol injected skin (in words) [2] | Effect on phorbol induced erythema and induration (in words) [2, 3] | Erythema (mm), Phorbol injected [2] [mm] | Induration (mm), Phorbol injected [2] [mm] | Erythema and induration induced by the substance itself (in words) ([2]; rabbit, in vivo) | Effect on phorbol induced erythema and induration (in words) ([2]; 10 μM, FIG. 4 dose response) | Effect on phorbol induced erythema and induration (in words) ([2]; 20 μM, FIG. 4 dose response) |
| --- | --- | --- | --- | --- | --- | --- | --- | --- | --- | --- |
| C[C@@H]1C[C@H]2[C@@H]3CCC4=CC(=O)C=C[C@]4(C)[C@@]3(F)[C@@H](O)C[C@]2(C)[C@@]1(O)C(=O)CO [Dexamethasone] | dramatically reduced these prostanoid levels | 106 | 88 | reduced the density of these inflammatory cells | dramatically reduced both erythema as well as induration | 10.5 ± 1.2 | 8.1 ± 2.0 |  |  |  |
| CCCCC/C=C\C/C=C\C/C=C\C/C=C\CCCC(=O)O [arachidonic acid] |  |  |  |  |  |  |  | induced some erythema and induration |  |  |
| Myoglobin |  |  |  | did not have any inhibitory effect | did not have any suppressive effect |  |  |  |  |  |
| B1 | dramatically reduced these prostanoid levels | 94 | 58 |  | dramatically reduced both erythema as well as induration | 6.4 ± 0.5 | 5.1 ± 0.8 |  | Significant inhibitory effect | most dramatic effect |
